From ChEMBL document CHEMBL1201862, “PubChem BioAssay data set” (2004)
Activity calls are given as the source filed them.

What was measured:
[1] = inhibitors of Vif binding to APOBEC3G peptide, primary screen, biochemical, TR-FRET, GST-Vif 1-94, biotin-A3G peptide, dose response retest (AID 1117319); type: functional;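 further: TR-FRET signal of purified GST-Vif binding a biotinylated A3G peptide; inhibitors lower the FRET signal by blocking Vif and A3G binding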
Hexokinase HKDC1 = biological target: T1, Hexokinase HKDC1 (Homo sapiens, UniProt Q2TB90); test: HKDC1 hexokinase inhibitors, dose response, biochemical, W721R variant (AID 504729); type: functional
T1 sequence (Q2TB90 whole entry): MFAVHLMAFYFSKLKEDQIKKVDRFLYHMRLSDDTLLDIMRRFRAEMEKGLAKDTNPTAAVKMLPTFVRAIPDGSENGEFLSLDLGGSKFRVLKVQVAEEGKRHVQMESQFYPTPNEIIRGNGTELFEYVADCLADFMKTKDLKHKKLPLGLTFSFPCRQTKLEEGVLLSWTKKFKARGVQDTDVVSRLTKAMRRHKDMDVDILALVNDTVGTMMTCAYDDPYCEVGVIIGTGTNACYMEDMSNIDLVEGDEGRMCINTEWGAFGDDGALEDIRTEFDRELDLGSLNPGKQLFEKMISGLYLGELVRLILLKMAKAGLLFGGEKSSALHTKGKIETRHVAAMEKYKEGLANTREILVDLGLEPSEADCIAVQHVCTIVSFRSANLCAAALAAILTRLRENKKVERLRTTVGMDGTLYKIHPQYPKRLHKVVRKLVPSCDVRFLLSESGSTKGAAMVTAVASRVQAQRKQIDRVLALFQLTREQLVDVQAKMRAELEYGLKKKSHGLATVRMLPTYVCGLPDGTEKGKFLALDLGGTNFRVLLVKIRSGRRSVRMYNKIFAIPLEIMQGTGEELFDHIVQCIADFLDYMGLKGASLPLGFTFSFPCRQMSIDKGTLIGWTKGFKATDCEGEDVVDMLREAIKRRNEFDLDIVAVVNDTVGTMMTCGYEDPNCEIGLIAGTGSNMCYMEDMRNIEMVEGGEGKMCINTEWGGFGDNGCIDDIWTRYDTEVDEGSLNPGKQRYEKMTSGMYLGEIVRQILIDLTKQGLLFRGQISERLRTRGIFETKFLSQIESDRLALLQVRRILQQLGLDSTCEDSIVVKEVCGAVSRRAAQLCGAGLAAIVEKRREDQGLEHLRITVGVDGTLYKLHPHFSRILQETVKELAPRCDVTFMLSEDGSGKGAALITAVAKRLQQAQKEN

[2] = Luminescence Cell-Based Dose Retest to Confirm Inhibitors of Cancer Stem Cells. [Related pubchem assays (depositor defined):AID2717, AID2721]; type: functional; conditions: Homo sapiens
[3] = biological target: T2, Ubiquitin-conjugating enzyme E2 N (Homo sapiens, UniProt P61088); type: functional
T2 sequence (P61088 whole entry): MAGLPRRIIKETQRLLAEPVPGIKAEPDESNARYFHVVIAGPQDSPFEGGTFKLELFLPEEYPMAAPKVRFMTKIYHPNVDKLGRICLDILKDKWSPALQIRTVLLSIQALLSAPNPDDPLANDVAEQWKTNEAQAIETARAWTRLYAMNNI

[4] = biological target: T2, Ubiquitin-conjugating enzyme E2 N; type: functional; remark: listed apart in the source
[5] = biological target: T3, DNA repair protein RAD52 homolog (Homo sapiens, UniProt P43351); type: functional, biochemical
T3 sequence (P43351 whole entry): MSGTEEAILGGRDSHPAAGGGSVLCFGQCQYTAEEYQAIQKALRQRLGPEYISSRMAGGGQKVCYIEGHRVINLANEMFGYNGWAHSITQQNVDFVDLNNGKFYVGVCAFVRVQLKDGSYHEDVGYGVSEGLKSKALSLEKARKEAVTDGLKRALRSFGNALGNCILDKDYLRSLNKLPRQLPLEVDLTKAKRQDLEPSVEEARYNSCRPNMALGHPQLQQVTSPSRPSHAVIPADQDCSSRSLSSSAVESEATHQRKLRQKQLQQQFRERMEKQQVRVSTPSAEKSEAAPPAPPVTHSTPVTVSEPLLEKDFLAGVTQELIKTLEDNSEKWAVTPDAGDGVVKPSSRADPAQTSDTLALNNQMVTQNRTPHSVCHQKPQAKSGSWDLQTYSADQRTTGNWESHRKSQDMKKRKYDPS

[6] = non-specific cell cytotoxicity, dose response, cytotoxicity control for PAX8 inhibitor project, plate reader, dry powder samples (AID 743021); type: functional, cell-based
[7] = NIH-3T3 fibroblast cytotoxicity, dose response, cytotoxicity control, cell-based, fluorescence, Alamar Blue, secondary assay (AID 2327); type: functional;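 further: NIH-3T3 mouse fibroblasts cultured with fluconazole at 8 µg/mL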
Bcl-2-related protein A1 = biological target: T4, Bcl-2-related protein A1 (Mus musculus, UniProt Q07440); type: functional;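 further: confirmatory dose–response counterscreen on Bfl-1, used to check hits from a UBC13 polyubiquitin inhibitor campaign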
T4 sequence (Q07440 whole entry): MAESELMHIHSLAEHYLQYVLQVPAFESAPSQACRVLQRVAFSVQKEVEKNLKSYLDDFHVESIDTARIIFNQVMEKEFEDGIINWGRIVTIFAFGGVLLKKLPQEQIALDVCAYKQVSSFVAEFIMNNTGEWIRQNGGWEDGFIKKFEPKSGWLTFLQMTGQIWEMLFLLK

Paired box protein Pax-8 = Paired box protein Pax-8 (Homo sapiens, UniProt Q06710); test: inhibitors of PAX8-driven TPO luciferase reporter, dose response, RMG-I cells, cherry-pick (AID 687027); type: functional, cell-based;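 further: luciferase reporter driven by Pax8 target thyroperoxidase promoter measured by SteadyGlo luminescence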
[8] = C. albicans growth with fluconazole, confirmation, fluorescence, retest (AID 2467); type: functional, cell-based
[9] = P. falciparum Dd2 growth inhibitors, dose response, SYBR Green, cherry-picked samples (AID 1159567); type: functional, cell-based
[10] = inhibitors of PGC1a acetylation in cells, dose response, cell-based, cherry-picked samples (AID 720514); type: functional;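 further: potency may reflect raised or lowered acetylation signal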
[11] = HepG2 cell cytotoxicity, dose response, cytotoxicity control, cherry-picked samples (AID 1159577); type: functional, cell-based
[12] = microbe, parasite or virus in culture; type: functional; conditions: Mycobacterium tuberculosis
[13] = tested on: Streptococcus sp. 'group A'; test: growth inhibition of control SK(-) GAS strain, dose response, counter-screen for streptokinase expression inhibitor project, luminescence, kanamycin, BacTiterGlo, confirmation (AID 1900); type: functional, organism-based
X-box-binding protein 1 = biological target: T5, X-box-binding protein 1 (Homo sapiens, UniProt P17861); type: functional, Cricetulus griseus;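 further: confirmatory dose-response counter-screen serving a CHOP assay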
T5 sequence (P17861 whole entry): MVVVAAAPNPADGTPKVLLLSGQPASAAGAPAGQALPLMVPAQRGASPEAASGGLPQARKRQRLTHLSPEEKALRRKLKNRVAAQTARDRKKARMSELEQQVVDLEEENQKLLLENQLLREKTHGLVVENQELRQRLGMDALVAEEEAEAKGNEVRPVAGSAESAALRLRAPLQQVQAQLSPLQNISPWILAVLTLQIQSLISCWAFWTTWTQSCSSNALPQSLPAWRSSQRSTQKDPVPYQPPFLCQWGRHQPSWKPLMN

INS1 = test: beta cell apoptosis inhibitors, cytokine rescue, dose response, luminescence, retest (AID 449756); type: functional, cell-based; conditions: Rattus norvegicus;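 further: cell death triggered by IL-1 beta plus TNF-alpha plus IFN-gamma mixture; protective hits raise ATP signal compared with cytokine alone wells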
Streptococcus = test: Group A Streptococcus viability loss, dose response, counter-screen for streptokinase expression inhibitor project, luminescence, BacTiterGlo (AID 1915); type: functional, organism-based;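 further: potency for reduction of bacterial viability or growth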
Streptokinase A = biological target: T6, Streptokinase A (Streptococcus pyogenes serotype M1, UniProt P10520); test: S. pyogenes streptokinase expression inhibitors, potency, dose response, plasminogen activation absorbance, OD405 (AID 1914); type: functional, Streptococcus pyogenes M1 GAS;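 further: secreted streptokinase activity via plasminogen activation per viability signal from cell pellet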
T6 sequence (P10520 whole entry): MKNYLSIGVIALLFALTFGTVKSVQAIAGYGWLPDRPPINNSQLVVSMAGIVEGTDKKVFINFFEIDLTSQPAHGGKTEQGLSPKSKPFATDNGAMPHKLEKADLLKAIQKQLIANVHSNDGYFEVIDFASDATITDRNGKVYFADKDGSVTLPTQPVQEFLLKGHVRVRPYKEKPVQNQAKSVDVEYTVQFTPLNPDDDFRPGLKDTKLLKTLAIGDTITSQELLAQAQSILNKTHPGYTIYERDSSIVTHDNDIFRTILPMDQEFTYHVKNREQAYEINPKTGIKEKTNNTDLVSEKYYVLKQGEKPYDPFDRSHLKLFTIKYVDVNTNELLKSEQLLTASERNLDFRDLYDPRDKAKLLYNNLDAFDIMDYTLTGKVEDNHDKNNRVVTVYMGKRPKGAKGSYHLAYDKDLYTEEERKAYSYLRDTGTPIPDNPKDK

[14] = biological target: E3 ubiquitin-protein ligase Mdm2 (Homo sapiens, UniProt Q00987); test: enhancers of MDM2-luciferase reporter signal, concentration-effect titration, project on inhibitors of MDM2 ubiquitin ligase, cellular assay, luminescent readout, 384-well plate format (AID 1394); type: functional;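 further: MDM2 E3 inhibitors raise luminescence so EC50 is for signal enhancement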
Sequence of E3 ubiquitin-protein ligase Mdm2 (Q00987 whole entry): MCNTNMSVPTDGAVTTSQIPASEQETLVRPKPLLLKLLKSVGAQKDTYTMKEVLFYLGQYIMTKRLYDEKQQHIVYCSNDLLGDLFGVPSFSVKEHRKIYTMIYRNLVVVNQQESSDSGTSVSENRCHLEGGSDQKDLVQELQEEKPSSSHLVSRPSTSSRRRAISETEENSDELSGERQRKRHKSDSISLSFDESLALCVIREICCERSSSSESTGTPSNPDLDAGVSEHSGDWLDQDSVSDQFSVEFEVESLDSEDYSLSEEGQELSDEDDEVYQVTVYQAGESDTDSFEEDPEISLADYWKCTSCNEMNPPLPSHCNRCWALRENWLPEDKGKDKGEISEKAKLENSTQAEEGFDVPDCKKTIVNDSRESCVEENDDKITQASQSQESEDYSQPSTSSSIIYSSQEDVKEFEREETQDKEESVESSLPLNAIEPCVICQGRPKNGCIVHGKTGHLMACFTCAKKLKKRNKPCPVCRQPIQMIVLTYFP

Sequence of Paired box protein Pax-8 (Q06710 whole entry): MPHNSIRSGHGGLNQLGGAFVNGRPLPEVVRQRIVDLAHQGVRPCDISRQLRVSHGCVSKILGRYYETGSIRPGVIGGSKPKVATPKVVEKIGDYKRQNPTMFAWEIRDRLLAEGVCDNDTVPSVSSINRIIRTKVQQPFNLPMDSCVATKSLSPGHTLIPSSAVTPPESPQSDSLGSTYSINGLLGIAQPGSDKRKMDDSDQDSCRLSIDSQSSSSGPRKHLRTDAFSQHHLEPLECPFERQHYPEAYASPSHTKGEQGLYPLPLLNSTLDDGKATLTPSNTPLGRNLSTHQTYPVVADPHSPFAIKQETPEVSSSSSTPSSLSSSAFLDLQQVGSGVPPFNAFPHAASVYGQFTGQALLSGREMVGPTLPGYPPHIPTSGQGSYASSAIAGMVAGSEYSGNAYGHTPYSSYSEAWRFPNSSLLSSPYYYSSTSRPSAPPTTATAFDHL

With `Cc1cc(/C=N/n2cnnc2)c(C)n1-c1cccc(Cl)c1` as the molecule, how does the IC50 [1] read?
The IC50 was > 100 µM (active).

Which IC50 (Hexokinase HKDC1) does the source give for `COc1ccc(CN2C(=O)c3cccnc3C2O)cc1` (centres undefined) here?
The IC50 was 21.5 µM (inactive).

For `CN1CCN(CCCNC(=O)c2ccc(/C=C3\Oc4ccccc4N(Cc4ccc(Cl)cc4)C3=O)cc2)CC1`, which AC50 [2] is on record?
Its AC50 is 3.55 µM (active).

What about the IC50 [3] of the same molecule?
The IC50 was 1.35 µM (active).

And the IC50 [4]?
The IC50 was 12.4 µM (active).

What about the AC50 [5] of the same molecule?
The AC50 was 17.9 µM (active).

And the AC50 [6]?
The AC50 was 0.974 µM (active).

And the EC50 [7]?
Its EC50 is > 150 µM (inconclusive).

And the IC50 (Bcl-2-related protein A1)?
Its IC50 is > 20 µM (inactive).

What about the AC50 (Paired box protein Pax-8) of the same molecule?
Its AC50 is 16.9 µM (active).

And the EC50 [8]?
Its EC50 is > 38 µM (not active).

With `OC[C@@H]1[C@@H](c2ccc(C#CC3CCCC3)cc2)[C@H]2CN(CCC(F)(F)F)CCCCN12` as the molecule, how does the AC50 [9] read?
The AC50 was 1.02 µM (active).

And the AC50 [10]?
The AC50 was 12.9 µM (active).

What about the AC50 [11] of the same molecule?
Its AC50 is 8.47 µM (active).

With `CCCc1nc2oc3c(NCC4CCCO4)ncnc3c2c2c1COC(C)(C)C2` (centres undefined) as the molecule, how does the IC50 (Hexokinase HKDC1) read?
The IC50 was 33.2 µM (inactive).

Which IC50 [1] does the source give for `Cc1ccc(CNC(=O)C2c3ccccc3C(=O)N3CCc4ccccc4C23)o1` (centres undefined) here?
The IC50 was > 100 µM (active).

For `C(=N\Nc1ncnc2sc3c(c12)CCC3)/c1cccs1`, which CC50 [12] is on record?
The CC50 was 15.7 µM (active).

And the AC50 [2]?
Its AC50 is 5.38 µM (active).

What about the EC50 [13] of the same molecule?
The EC50 was 15.8 µM (active).

And the “Absolute IC50 (XBP1)” value (X-box-binding protein 1)?
Its value is 10 µM.

What about the AC50 (INS1) of the same molecule?
The AC50 was 5.3 µM (active).

What about the EC50 (Streptococcus) of the same molecule?
Its EC50 is 19.5 µM (active).

And the EC50 (Streptokinase A)?
The EC50 was > 150 µM (not active).

For `O=C(O)c1ccc2c(c1)N(Cc1ccccc1F)C(=O)c1ccccc1[S+]2[O-]` (centres undefined), which EC50 [14] is on record?
Its EC50 is 237 µM (not active).
